The source of these data is EP4696306A1, “ADENOSINE TRIPHOSPHATE SECRETION INHIBITOR, HEPATIC STELLATE CELL ACTIVATION INHIBITOR, HEPATIC STELLATE CELL DEACTIVATOR, HEPATIC FIBROSIS THERAPEUTIC AGENT, NON-ALCOHOLIC STEATOHEPATITIS THERAPEUTIC AGENT, PSORIASIS THERAPEUTIC AGENT, AND USE OF COMPOUND FOR PRODUCING ADENOSINE TRIPHOSPHATE …” (KURUME UNIVERSITY, priority 2023, dated 2024).

Each structure is given as a SMILES string.

Experiment [1] relates to imiquimod-induced psoriasis. The experiment is described as follows: Imiquimod-induced psoriasis model. The conditions noted are these: for auricular thickening and psoriatic symptoms: Example 21, N = 2. It counts as in vivo, mice. The protocol: Experimental psoriatic symptoms were induced in a mouse auricle by imiquimod. Six-week-old male C57BL/6 mice (N = 5) were acclimated for one week. On Days 1 to 7, 62.5 mg of 5% imiquimod cream (Beselna Cream 5%) (3.125 mg in terms of the active ingredient, manufactured by Mochida Pharmaceutical Co. Ltd.) was applied to the right auricle of the mice for 7 consecutive days (IMQ group). Once daily after the imiquimod application, the imeglimin administration group (IMQ + IMG group) received oral administration, at 40 mg/kg, of 500-mg Twymeeg (trademark) tablets (manufactured by Sumitomo Pharma Co. Ltd.) dissolved in physiological saline. The control group received an equal volume of physiological saline. On Day 8, the mice were euthanized by cervical dislocation, and auricle thickness was measured using a dial thickness gauge (manufactured by Adachi Sogyo Co., Ltd.).
Each excised mouse auricle was fixed in 4% paraformaldehyde at 4°C overnight. After ethanol substitution, the auricle was embedded in paraffin, sectioned using a rotary microtome Leica RM2165 (thickness, […]), and subjected to HE staining or immunohistochemical staining. For the immunohistochemical staining, the sections were deparaffinized, washed in xylene, and rehydrated through graded alcohols. The sections were incubated in DAKO at 95°C for 30 minutes. The sections were blocked at room temperature for 60 minutes and then incubated at room temperature for 2 hours to allow reaction with a TGM1 anti-rabbit polyclonal antibody (catalog number 12912-3-AP, manufactured by Proteintech). The sample was washed and then allowed to react with a secondary antibody (Alexa 544-conjugated secondary antibody (goat anti-rabbit IgG) (manufactured by Molecular Probes)) at room temperature for 60 minutes. After allowing reaction with DAPI at room temperature for 10 minutes, the sections were mounted with Fluoromount and imaged using a fluorescence microscope (BZ-X710, manufactured by Keyence).
The dorsal hair of mice was shaved and depilated (Day 0). To each of the left auricle and the depilated back of each mouse, 62.5 mg of 5% imiquimod cream (Beselna Cream 5%) was applied once daily a total of seven times (Days 1 to 7) in accordance with Example 18, to induce imiquimod-induced psoriasis (IMQ group). In the IMQ + IMG group, mice received oral administration of imeglimin (40 mg/kg) once daily (Day 1 to 7) after the imiquimod application. […] Thickness of the auricle was measured, and the degrees of erythema, desquamation, and infiltration in the affected area were rated on Days 1, 3, 5, 7, and 8 according to the PASI scoring of the DermNET Dermatology Resource (none: 0, mild: 1, moderate: 2, severe: 3, and very severe: 4). The resulting values were used to calculate the PASI score.
Further, for an auricle excised on Day 8, immunohistochemical staining was performed in the same manner as in Example 18, and auricular sections were imaged using a fluorescence microscope (BZ-X710; manufactured by Keyence Corporation).
On Days 1, 2, 3, 5, and 6, 62.5 mg of 5% imiquimod cream (Beselna Cream 5%) was applied to auricles of wild-type mice (IMQ) or VNUT knockout mice (VNUT KO + IMQ) to induce psoriatic symptoms. […] For a negative control, only 20% glycerin solution was applied. In IMQ + 1% IMG and IMQ + 0.1% IMG, 20% glycerin solution supplemented with 1% (w/v) imeglimin and 0.1% (w/v) imeglimin, respectively, was applied immediately after the imiquimod application. Further, in IMQ + 1% Clo and IMQ + 0.1% Clo, 20% glycerin solution supplemented with 1% (w/v) clodronate and 0.1% (w/v) clodronate, respectively, was applied immediately after the imiquimod application.

In another experiment the test system is THP-1 cells. The experiment is described as follows: LPS-stimulated ATP secretion in macrophages differentiated from THP-1 cells. The format is cell-based, human. The conditions noted are these: 10 µM; LPS 10 µg/ml 10 minutes; N = 10. How it is done:
Human acute monocytic leukemia cells (THP-1 cells (ACTT)) were cultured in accordance with Reference D. THP-1 cells were cultured in RPMI1640 medium supplemented with 10% fetal bovine serum (FBS), 100 units/ml penicillin, and 100 µg/ml streptomycin at 37°C in 5% CO2 for 1 day. Further, THP-1 cells were cultured in RPMI1640 medium supplemented with 1 µg/ml Escherichia coli scrotype 055:B5 (manufactured by Sigma-Aldrich) and 1000 units/ml mouse IFN-γ (manufactured by R&D Systems) at 37°C in 5% CO2 for 1 day, to allow differentiation into macrophages.
The differentiated macrophages were cultured in RPMI1640 medium supplemented with 1 mg/ml Escherichia coli scrotype 055:B5 (manufactured by Sigma-Aldrich) and 1000 units/ml mouse IFN-γ (manufactured by R&D Systems) at 2.5 × 10^4 cells/well in a 24-well plate at 37°C in 5% CO2 for 4 days. The medium was replaced with HBSS (manufactured by Gibco) supplemented with imeglimin or clodronate), and then LPS (10 µg/ml) was added thereto, followed by further performing incubation for 10 minutes and then collection of 200 µl of the supernatant. The supernatant was immediately treated on a heat block at 95°C for 10 minutes, and ATP in the supernatant was quantified using an ATP assay kit - Luminescence (manufactured by Dojindo) (N = 10).

The test system of the next experiment is LX-2 cells. The experiment is described as follows: ATP secretion from LX-2 cells. It counts as cell-based, human. How it is done:
Cells of the immortalized human hepatic stellate cell line LX-2 (manufactured by Merck) was cultured in Dulbecco's modified Eagle's medium (DMEM, 4500 mg/l Glucose, D5796, manufactured by Sigma-Aldrich) supplemented with inactivated 2% fetal bovine serum (FBS), 10 IU/ml penicillin, and 10 IU/ml streptomycin in a T25 or T75 flask at 37°C in 5% CO2.
LX-2 cells (2 × 10^6 cells per well) were seeded in a collagen-coated 6-well culture dish containing Dulbecco's modified Eagle's medium (manufactured by Sigma-Aldrich) supplemented with 10 IU/ml penicillin, […] 2% fetal bovine serum, and cultured in 5% CO2 at 37°C. After 3 days, the LX-2 cells were washed twice and preincubated in Krebs-Ringer buffer (10 mM HEPES-Tris, pH 7.4, 128 mM NaCl, 1.9 mM KCl, 1.2 mM KH2PO4, 1.3 mM MgSO4, 26 mM NaHCO3, 2.4 mM CaCl2, 10 mM glucose, 0.2% (w/v) bovine serum albumin) with or without 10 µM clodronate. The LX-2 cells were then stimulated with Krebs-Ringer buffer supplemented with ionomycin (manufactured by Cayman) regardless of whether clodronate was present or not. For the stimulation, 1 mM EGTA (manufactured by Dojindo) or 10 µM serotonin (5-HT, manufactured by Sigma-Aldrich) was used. The ATP concentration in the culture supernatant was measured in the same manner as in Example 6.

For `O=P(O)(O)C(Cl)(Cl)P(=O)(O)O` [clodronate], the “auricular thickening and psoriatic symptoms” value in experiment [1] (topical 20% glycerin solution with 0.1% (w/v) clodronate) and in experiment [1] (topical 20% glycerin solution with 1% (w/v) clodronate) was “the degree of auricular thickening was improved” in each case. For the same compound, the “ATP secretion upon LPS stimulation” value with THP-1 cells is reported as “strongly inhibited”. In addition, the “ATP exocytosis induced by ionomycin” value with LX-2 cells (10 µM clodronate, N = 6) is reported as “inhibited”. The “ATP secretion promoted by 5-HT” value in the experiment on LX-2 cells (10 µM serotonin, 10 µM clodronate, N = 6) is on record as “strongly inhibited”.

Turning to `C[C@H]1N=C(N(C)C)N=C(N)N1` [imeglimin], the “epidermal desquamation and psoriatic symptoms of the auricle” value in experiment [1] (Example 18, oral 40 mg/kg once daily, Days 1 to 7 (Twymeeg tablets dissolved in saline), N = 5) is “eliminated epidermal desquamation and reduced the psoriatic symptoms”. Further, in experiment [1] (Example 18, oral 40 mg/kg once daily, Days 1 to 7, N = 5), the “auricle thickening induced by imiquimod” value is recorded as “suppressed”. Besides, the “typical psoriatic symptoms (auricular thickness, desquamation, infiltration, PASI score), except erythema” value in experiment [1] (Example 19, imeglimin 40 mg/kg orally once daily Day 1 to 7, N = 5) was “reduced”. The “effect compared with infliximab” value in experiment [1] (Example 19, imeglimin 40 mg/kg orally versus infliximab 100 µg/mouse i.v.) is on record as “almost equivalent, or imeglimin was more effective”. The “auricular thickening and psoriatic symptoms” value in experiment [1] (topical 20% glycerin solution with 0.1% (w/v) imeglimin) is “no effect”; in experiment [1] (topical 20% glycerin solution with 1% (w/v) imeglimin), “the degree of auricular thickening was improved”. For the same compound, the “ATP secretion upon LPS stimulation” value in the experiment on THP-1 cells was “strongly inhibited”. Further, the “ATP secretion from the LX-2 cells” value with LX-2 cells (imeglimin, concentration not given, N = 8) is reported as “inhibited ATP secretion”.
